One assay concerns Sprague-Dawley rats. The assay can be described thus: PD studies: blood glucose after subcutaneous dosing. Type of assay: in vivo. Conditions: sc. The procedure: The pharmacodynamic effect of the Insulin Fc conjugates of the examples were investigated in normal male Sprague-Dawley rats weighing approx. 350 g at study start.
Animals had free access to food and water during the experiment period. They were dosed subcutaneously in the neck region with a dose of 30 nmol/kg (unless otherwise stated in the figures below). Blood samples for blood glucose and plasma insulin analysis were collected from the tongue veins up to 10 days post dosing. Blood glucose was measured using Biosen S Line (EKF).

The target of the next assay is insulin receptor A (Homo sapiens, UniProt P06213). The assay can be described thus: Insulin receptor affinity. The following applies: relative to affinity of human insulin for insulin receptor A (100%). The assay is classed as binding.
A further assay deals with isolated rat adipocytes. The experiment in a line: Insulin-stimulated lipogenesis. Type of assay: cell-based. Conditions: 1% HSA; relative to the activity of human insulin (100%). As to the method: Insulin-stimulated lipogenesis was measured in isolated rat adipocytes in presence of 1% HSA as described in Moody A J, Stan M A, Stan M, Gliemann J. A Simple Free Fat Cell Bioassay for Insulin. Hormone And Metabolic Research. 1974; 6(1):12-6, see results in Table 6.

[1] abbreviates: dose 30 nmol/kg, time 0.041667 days.
Where [2] appears, read: dose 30 nmol/kg, time 0.125 days.
Where [3] appears, read: dose 30 nmol/kg, time 0.291667 days.

Chain of insulin receptor A (P06213 28-1370 isoform P06213-2 limits assumed): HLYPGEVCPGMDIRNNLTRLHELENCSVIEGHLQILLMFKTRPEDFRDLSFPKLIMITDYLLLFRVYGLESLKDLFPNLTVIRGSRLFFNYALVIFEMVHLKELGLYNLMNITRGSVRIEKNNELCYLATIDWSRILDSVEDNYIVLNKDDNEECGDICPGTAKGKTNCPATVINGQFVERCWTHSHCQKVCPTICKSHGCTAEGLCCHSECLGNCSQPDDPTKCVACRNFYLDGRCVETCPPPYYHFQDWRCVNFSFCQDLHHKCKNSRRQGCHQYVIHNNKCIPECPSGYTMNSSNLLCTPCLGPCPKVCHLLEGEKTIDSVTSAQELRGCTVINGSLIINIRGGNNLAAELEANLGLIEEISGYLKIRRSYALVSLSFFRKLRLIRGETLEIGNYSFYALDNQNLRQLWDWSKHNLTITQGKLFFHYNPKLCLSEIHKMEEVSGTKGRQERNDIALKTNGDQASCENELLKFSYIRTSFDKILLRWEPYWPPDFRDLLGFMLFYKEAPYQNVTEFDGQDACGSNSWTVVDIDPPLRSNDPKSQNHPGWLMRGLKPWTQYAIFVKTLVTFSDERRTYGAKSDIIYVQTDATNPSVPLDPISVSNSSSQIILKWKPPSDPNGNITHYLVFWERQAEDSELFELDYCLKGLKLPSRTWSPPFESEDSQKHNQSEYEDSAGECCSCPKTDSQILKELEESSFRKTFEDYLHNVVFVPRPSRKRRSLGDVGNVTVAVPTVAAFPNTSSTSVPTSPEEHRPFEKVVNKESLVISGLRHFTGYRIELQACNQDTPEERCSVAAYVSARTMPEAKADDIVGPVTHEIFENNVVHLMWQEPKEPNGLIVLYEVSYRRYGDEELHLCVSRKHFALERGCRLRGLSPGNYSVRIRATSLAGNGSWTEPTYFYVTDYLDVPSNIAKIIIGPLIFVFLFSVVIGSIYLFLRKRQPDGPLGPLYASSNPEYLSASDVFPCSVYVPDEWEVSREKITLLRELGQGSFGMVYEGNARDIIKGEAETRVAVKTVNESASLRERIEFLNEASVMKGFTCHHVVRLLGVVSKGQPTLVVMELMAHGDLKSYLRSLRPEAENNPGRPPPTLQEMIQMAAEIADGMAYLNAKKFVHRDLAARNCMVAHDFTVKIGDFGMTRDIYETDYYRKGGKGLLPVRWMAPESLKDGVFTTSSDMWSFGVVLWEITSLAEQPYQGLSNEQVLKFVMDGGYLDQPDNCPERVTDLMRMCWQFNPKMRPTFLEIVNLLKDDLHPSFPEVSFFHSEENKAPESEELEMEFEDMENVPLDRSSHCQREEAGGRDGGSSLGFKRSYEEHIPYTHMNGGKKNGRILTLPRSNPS
Chain of insulin receptor A (P06213 763-1382 partner limits assumed): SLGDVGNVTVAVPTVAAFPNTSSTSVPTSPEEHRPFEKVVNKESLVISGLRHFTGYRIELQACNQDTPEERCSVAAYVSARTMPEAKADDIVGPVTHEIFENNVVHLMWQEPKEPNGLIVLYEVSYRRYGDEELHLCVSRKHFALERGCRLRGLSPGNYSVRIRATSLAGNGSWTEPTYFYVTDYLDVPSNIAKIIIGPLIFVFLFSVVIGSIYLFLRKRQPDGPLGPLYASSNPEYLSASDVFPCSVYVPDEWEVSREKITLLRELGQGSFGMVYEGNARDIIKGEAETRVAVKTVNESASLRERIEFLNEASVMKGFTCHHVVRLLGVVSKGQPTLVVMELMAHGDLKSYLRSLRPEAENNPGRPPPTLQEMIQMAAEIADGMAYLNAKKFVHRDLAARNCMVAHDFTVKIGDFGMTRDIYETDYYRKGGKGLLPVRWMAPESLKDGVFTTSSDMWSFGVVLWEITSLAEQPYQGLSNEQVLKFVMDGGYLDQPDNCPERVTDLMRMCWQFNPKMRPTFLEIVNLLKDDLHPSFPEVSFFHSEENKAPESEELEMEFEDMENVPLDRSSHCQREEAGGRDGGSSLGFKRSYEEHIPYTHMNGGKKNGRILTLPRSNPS

“(A14E, A21G, A22(GQEP)19, 98K^, A99P, B25H, B29R, desB30 human insulin)/(226A, 227G, 228P, 234A, 235K, des447 hIgG4-Fc(228-447))3,5-bis[(2-acetyl)amino]benzoyl Conjugate [Example 5.33]”: the Average blood glucose was 5.496 mM in the assay with Sprague-Dawley rats (dose 30 nmol/kg, time 0 days); 5.284 mM with Sprague-Dawley rats (setting [1]); 4.716 mM with Sprague-Dawley rats (setting [2]); 3.744 mM with Sprague-Dawley rats (setting [3]); 3.744 mM with Sprague-Dawley rats (dose 30 nmol/kg, time 1 day); 2.232 mM with Sprague-Dawley rats (dose 30 nmol/kg, time 2 days). The Average blood glucose with Sprague-Dawley rats (dose 30 nmol/kg, time 3 days) turned out to be 1.844 mM; in the assay on Sprague-Dawley rats (dose 30 nmol/kg, time 4 days), 2.432 mM; with Sprague-Dawley rats (dose 30 nmol/kg, time 5 days) it was 3.98 mM; in the assay with Sprague-Dawley rats (dose 30 nmol/kg, time 6 days), 6.132 mM; in the assay on Sprague-Dawley rats (dose 30 nmol/kg, time 7 days), 5.712 mM; in the assay with Sprague-Dawley rats (dose 30 nmol/kg, time 8 days) it was 5.38 mM. The Average blood glucose in the assay with Sprague-Dawley rats (dose 30 nmol/kg, time 9 days) is listed as 5.316 mM; in the assay with Sprague-Dawley rats (dose 30 nmol/kg, time 10 days) it was 5.44 mM. Moreover, the “Insulin receptor affinity [IC50 relative to HI (%)] Mean Value” at insulin receptor A is listed as 3.85%. In addition, the “Lipogenesis in rat adipocytes [Potency (%)] Mean Value” in the assay with isolated rat adipocytes was 5.44%.

On to “A14E, A21Q, A22(G)18, A40K^, B25H, B29R, desB30 human insulin/(227A, 234A, 235K hIgG4-Fc(228-447))4-[bis[2-[(2-acetyl)amino]ethyl]amino]-4-oxo-butanoyl Conjugate [Example 5.21]”, for which the Average blood glucose is recorded as 5.254 mM with Sprague-Dawley rats (dose 300 nmol/kg, time 0 days); 5.972 mM in the assay on Sprague-Dawley rats (dose 300 nmol/kg, time 0.006944 days); 4.224 mM in the assay on Sprague-Dawley rats (dose 300 nmol/kg, time 0.041667 days); 3.238 mM in the assay with Sprague-Dawley rats (dose 300 nmol/kg, time 0.125 days); 2.842 mM in the assay with Sprague-Dawley rats (dose 300 nmol/kg, time 0.208333 days); 3.212 mM in the assay on Sprague-Dawley rats (dose 300 nmol/kg, time 0.291667 days). Further, the Average blood glucose stood at 3.494 mM with Sprague-Dawley rats (dose 300 nmol/kg, time 0.3336 days); 2.58 mM in the assay with Sprague-Dawley rats (dose 300 nmol/kg, time 1 day); 2.118 mM in the assay on Sprague-Dawley rats (dose 300 nmol/kg, time 2 days); 2.074 mM with Sprague-Dawley rats (dose 300 nmol/kg, time 3 days); 2.37 mM in the assay with Sprague-Dawley rats (dose 300 nmol/kg, time 4 days); 2.478 mM in the assay on Sprague-Dawley rats (dose 300 nmol/kg, time 5 days). For the same substance, the Average blood glucose came out at 4.534 mM in the assay on Sprague-Dawley rats (dose 300 nmol/kg, time 6 days); 5.588 mM in the assay with Sprague-Dawley rats (dose 300 nmol/kg, time 7 days); 6.552 mM with Sprague-Dawley rats (dose 300 nmol/kg, time 8 days); 5.644 mM in the assay on Sprague-Dawley rats (dose 300 nmol/kg, time 9 days); 5.788 mM with Sprague-Dawley rats (dose 300 nmol/kg, time 10 days). Moreover, the “Insulin receptor affinity [IC50 relative to HI (%)] Mean Value” on insulin receptor A is given as 2.10%. For the same substance, the “Lipogenesis in rat adipocytes [Potency (%)] Mean Value” in the assay on isolated rat adipocytes turned out to be 0.95%.

Regarding “A14E, A21G, A22(GQEP)19, A98K^, A99P, B3Q, B25H, B29R, desB30 human insulin/(227A, 234A, 235K hIgG4-Fc(228-447))4-[bis[2-[(2-acetyl)amino]ethyl]amino]-4-oxo-butanoyl Conjugate [Example 5.6]”, the Average blood glucose in the assay on Sprague-Dawley rats (dose 30 nmol/kg, time 0 days) is reported as 6.46 mM; in the assay on Sprague-Dawley rats (setting [1]) it was 6.024 mM; with Sprague-Dawley rats (setting [2]) it was 5.092 mM; in the assay on Sprague-Dawley rats (setting [3]), 3.90 mM; in the assay on Sprague-Dawley rats (dose 30 nmol/kg, time 1 day), 2.808 mM; with Sprague-Dawley rats (dose 30 nmol/kg, time 2 days) it was 2.464 mM. The Average blood glucose with Sprague-Dawley rats (dose 30 nmol/kg, time 3 days) turned out to be 2.996 mM; in the assay on Sprague-Dawley rats (dose 30 nmol/kg, time 4 days), 2.996 mM; with Sprague-Dawley rats (dose 30 nmol/kg, time 6 days) it was 5.98 mM; in the assay on Sprague-Dawley rats (dose 30 nmol/kg, time 7 days), 5.82 mM; in the assay on Sprague-Dawley rats (dose 30 nmol/kg, time 8 days) it was 6.012 mM. The “Insulin receptor affinity [IC50 relative to HI (%)] Mean Value” at insulin receptor A came to 5.07%.

For insulin degludec [reference compound], in the assay with Sprague-Dawley rats (3-fold higher dose (90 nmol/kg)), the “time over which blood glucose was lowered” value was “less than half a day”. Also, the Average blood glucose is listed as 5.382 mM in the assay on Sprague-Dawley rats (dose 90 nmol/kg, time 0 days); 4.104 mM with Sprague-Dawley rats (dose 90 nmol/kg, time 0.020833 days); 3.182 mM in the assay on Sprague-Dawley rats (dose 90 nmol/kg, time 0.041667 days); 2.718 mM in the assay with Sprague-Dawley rats (dose 90 nmol/kg, time 0.083333 days); 2.336 mM in the assay with Sprague-Dawley rats (dose 90 nmol/kg, time 0.166667 days); 3.424 mM in the assay with Sprague-Dawley rats (dose 90 nmol/kg, time 0.25 days). Further, the Average blood glucose in the assay with Sprague-Dawley rats (dose 90 nmol/kg, time 0.3336 days) worked out at 4.292 mM; in the assay with Sprague-Dawley rats (dose 90 nmol/kg, time 0.5 days), 5.302 mM; with Sprague-Dawley rats (dose 90 nmol/kg, time 1 day) it was 5.758 mM.

Turning to “A14E, A21G, A22(GQAPGQEP)6, A70K^, A71P, B25H, B29R, desB30 human insulin/(227A, 234A, 235K hIgG4-Fc(228-447))4-[bis[2-[(2-acetyl)amino]ethyl]amino]-4-oxo-butanoyl Conjugate [Example 5.9]”, the Average blood glucose with Sprague-Dawley rats (dose 30 nmol/kg, time 0 days) is 5.812 mM; in the assay with Sprague-Dawley rats (setting [1]), 5.448 mM; in the assay with Sprague-Dawley rats (setting [2]), 5.438 mM; with Sprague-Dawley rats (dose 30 nmol/kg, time 0.208333 days) it was 4.902 mM; in the assay on Sprague-Dawley rats (setting [3]), 4.426 mM; in the assay with Sprague-Dawley rats (dose 30 nmol/kg, time 1 day), 3.044 mM. The Average blood glucose in the assay on Sprague-Dawley rats (dose 30 nmol/kg, time 2 days) came to 2.614 mM; with Sprague-Dawley rats (dose 30 nmol/kg, time 3 days), 2.594 mM; in the assay on Sprague-Dawley rats (dose 30 nmol/kg, time 4 days) it was 3.734 mM; in the assay on Sprague-Dawley rats (dose 30 nmol/kg, time 5 days), 5.932 mM; with Sprague-Dawley rats (dose 30 nmol/kg, time 6 days), 6.244 mM; in the assay on Sprague-Dawley rats (dose 30 nmol/kg, time 7 days), 6.312 mM. The same substance came in with an Average blood glucose in the assay with Sprague-Dawley rats (dose 30 nmol/kg, time 8 days) of 6.186 mM. For the same substance, the “Insulin receptor affinity [IC50 relative to HI (%)] Mean Value” on insulin receptor A amounted to 2.96%. Moreover, in the assay with isolated rat adipocytes, the “Lipogenesis in rat adipocytes [Potency (%)] Mean Value” was determined as 3.02%.

On to “(A14E, A21G, A22(GQAP)24, A118G, A119Q, A120A, A121K^, A122P, B29R, desB30 human insulin)/(227A, 234A, 235K, 297E, 315Q, 384Q, des447 hIgG4-Fc(228-447))3,5-bis[(2-acetyl)amino]benzoyl Conjugate [Example 5.29]”, for which the “Insulin receptor affinity [IC50 relative to HI (%)] Mean Value” on insulin receptor A was determined as 3.06%. Besides, the “Lipogenesis in rat adipocytes [Potency (%)] Mean Value” with isolated rat adipocytes came to 2.64%.

“(A14E, A21G, A22(GQAP)24, A118G, A119Q, A120A, A121K^, A122P, B25H, B29R, desB30 human insulin)/(227A, 234A, 235K, 297E, 315Q, 3840, des447 hIgG4-Fc(228-447))3,5-bis[(2-acetyl)amino]benzoyl Conjugate [Example 5.22]”: the “Insulin receptor affinity [IC50 relative to HI (%)] Mean Value” on insulin receptor A is 3.56%. For the same substance, the “Lipogenesis in rat adipocytes [Potency (%)] Mean Value” with isolated rat adipocytes came out at 4.64%.

With “A14E, A21G, A22(GQAPGQAPGQAPGQEP)6-GQAP, A122K^, A123P, B25H, B29R, desB30 human insulin/(227A, 234A, 235K, 297E, 315Q, 384Q, des447 hIgG4-Fc(228-447))4-[bis[2-[(2-acetyl)amino]ethyl]amino]-4-oxo-butanoyl Conjugate [Example 5.20]”, the “Insulin receptor affinity [IC50 relative to HI (%)] Mean Value” at insulin receptor A stood at 5.49%. For the same substance, the “Lipogenesis in rat adipocytes [Potency (%)] Mean Value” in the assay on isolated rat adipocytes is given as 5.41%.

“A14E, A21G, A22(GQEP)6, A46K^, A47P, B25H, B29R, desB30 human insulin/(227A, 234A, 235K, 297E, 315Q, 384Q, des447 hIgG4-Fc(228-447))4-[bis[2-[(2-acetyl)amino]ethyl]amino]-4-oxo-butanoyl Conjugate [Example 5.32]”: the “Insulin receptor affinity [IC50 relative to HI (%)] Mean Value” on insulin receptor A is 2.16%. The “Lipogenesis in rat adipocytes [Potency (%)] Mean Value” in the assay on isolated rat adipocytes was determined as 3.72%.

On to “A14E, A21G, A22(GQEP)3, A34G, A350, A36E, A37K^, A38P, B25H, B29R, desB30 human insulin/(227A, 234A, 235K hIgG4-Fc(228-447))4-[bis[2-[(2-acetyl)amino]ethyl]amino]-4-oxo-butanoyl Conjugate [Example 5.10]”, for which the “Insulin receptor affinity [IC50 relative to HI (%)] Mean Value” on insulin receptor A is on record as 2.47%.

On to “(A14E, A21G, A22(GQAP)18, A94G, A95Q, A96A, A97K^, A98P, B16E, B25H, B29R, desB30 human insulin)/(227A, 234A, 235K, 297E, 315Q, 384Q, des447 hIgG4-Fc(228-447))4-[bis[2-[(2-acetyl)amino]ethyl]amino]-4-oxo-butanoyl Conjugate [Example 5.31]”, for which the “Insulin receptor affinity [IC50 relative to HI (%)] Mean Value” on insulin receptor A came out at 0.47%. For the same substance, the “Lipogenesis in rat adipocytes [Potency (%)] Mean Value” with isolated rat adipocytes is 0.60%.
